Laboratory results: PMC8284931 (Journal of biomolecular screening, 2012)
Structures can show the parent of a compound that is named as a salt. Where two headings read alike, the source gives them in different places.

Tests used:
[1] = reported, no reference given, cited from earlier work
P-glycoprotein = conditions: result in words; cited from earlier work
[2] = molecular target: T1, mammalian GUS purified from Bovine taurus liver (Bos taurus, UniProt A3KMY8); experiment: B. taurus GUS enzyme assay; assay type: biochemical; conditions: for activity against purified mammalian GUS: result in words
T1 sequence (A3KMY8 1-652): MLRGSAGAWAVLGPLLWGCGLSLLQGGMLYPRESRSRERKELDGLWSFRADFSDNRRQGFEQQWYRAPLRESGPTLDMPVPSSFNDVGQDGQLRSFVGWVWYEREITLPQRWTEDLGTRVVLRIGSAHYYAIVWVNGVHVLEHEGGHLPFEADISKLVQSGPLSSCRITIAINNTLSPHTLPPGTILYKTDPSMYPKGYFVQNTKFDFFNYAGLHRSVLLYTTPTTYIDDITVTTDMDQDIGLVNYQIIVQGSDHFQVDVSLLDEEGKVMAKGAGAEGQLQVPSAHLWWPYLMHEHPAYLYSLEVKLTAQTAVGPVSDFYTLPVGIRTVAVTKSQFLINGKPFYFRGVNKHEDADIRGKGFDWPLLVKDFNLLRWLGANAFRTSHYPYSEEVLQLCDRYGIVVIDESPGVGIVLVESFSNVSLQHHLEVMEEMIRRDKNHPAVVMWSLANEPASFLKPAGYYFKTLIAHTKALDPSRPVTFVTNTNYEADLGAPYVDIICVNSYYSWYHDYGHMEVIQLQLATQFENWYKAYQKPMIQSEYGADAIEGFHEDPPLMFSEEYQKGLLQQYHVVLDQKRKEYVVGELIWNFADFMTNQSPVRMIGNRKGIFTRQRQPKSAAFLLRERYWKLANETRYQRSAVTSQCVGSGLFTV

E. coli cells = experiment: Toxicity assay; conditions: MTS, 50 μg/ml, positive control
[3] = molecular target: purified E. coli GUS enzyme (Escherichia coli, UniProt P05804); experiment: E. coli GUS enzyme assay; assay type: biochemical
Sequence of purified E. coli GUS enzyme (P05804 whole entry): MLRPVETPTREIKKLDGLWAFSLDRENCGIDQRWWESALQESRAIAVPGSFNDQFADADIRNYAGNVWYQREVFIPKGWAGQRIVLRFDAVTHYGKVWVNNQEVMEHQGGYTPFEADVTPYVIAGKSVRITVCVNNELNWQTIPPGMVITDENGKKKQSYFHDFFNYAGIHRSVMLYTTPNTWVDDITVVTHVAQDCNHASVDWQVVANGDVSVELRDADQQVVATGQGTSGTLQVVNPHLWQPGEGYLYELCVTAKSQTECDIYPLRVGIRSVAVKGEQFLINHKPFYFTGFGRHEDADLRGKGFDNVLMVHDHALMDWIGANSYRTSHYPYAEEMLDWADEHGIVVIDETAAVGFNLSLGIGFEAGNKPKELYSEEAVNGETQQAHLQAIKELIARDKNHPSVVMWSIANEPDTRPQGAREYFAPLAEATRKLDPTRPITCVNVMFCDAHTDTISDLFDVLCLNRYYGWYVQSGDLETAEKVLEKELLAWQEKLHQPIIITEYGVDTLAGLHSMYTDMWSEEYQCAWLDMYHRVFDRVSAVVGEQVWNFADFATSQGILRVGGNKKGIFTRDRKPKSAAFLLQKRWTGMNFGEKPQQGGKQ

in vitro = conditions: E. coli
[4] = molecular target: endogenous GUS in living intact E. coli (DH5α) (Escherichia coli, UniProt P05804); experiment: E. coli cell-based GUS activity assay; conditions: IC50 shift; for fold less potent in cell-based assay compared to E. coli GUS enzyme assay: less potent in cells
Sequence of endogenous GUS in living intact E. coli (DH5α) (P05804 whole entry): as above

[5] = test system: MAO (MAO-A, MAO-B or total activity); conditions: read-out: IC50 for MAO; depending on subclass of MAO-A or MAO-B, or total activity; reported, no reference given; cited from earlier work

Clc1ccc2c(c1)C(N1CCNCC1)=Nc1ccccc1O2 [Amoxapine, amoxapine]
normal blood levels ([1]; converted from μg/ml): 54 to 669 nM | normal blood levels [1]: 0.017 to 0.21 µg/mL | inhibition of P-glycoprotein (P-glycoprotein): potent non-competitive inhibitors

Cc1cc(C(=O)NNCc2ccccc2)no1 [Isocarboxazid, isocarboxazid]
IC50 [2]: > 100000 nM | activity against purified mammalian GUS [2]: no significant activity

NC[C@H]1O[C@H](O[C@H]2[C@H](O)[C@@H](O[C@H]3O[C@H](CO)[C@@H](O)[C@H](N)[C@H]3O)[C@H](N)C[C@@H]2N)[C@H](O)[C@@H](O)[C@@H]1O [Kanamycin, kanamycin]
reduction of activity in viability assay (E. coli cells): over 90%

CN1CCN(C2=Nc3ccccc3Oc3ccc(Cl)cc32)CC1 [Loxapine, loxapine]
inhibition of P-glycoprotein (P-glycoprotein): potent non-competitive inhibitors | loss in potency versus amoxapine ([3]; E. coli GUS enzyme assay, methyl group on the piperazine ring): > 250 fold

OC(c1cc(C(F)(F)F)nc2c(C(F)(F)F)cccc12)C1CCCCN1 (stereo not drawn) [Mefloquine, mefloquine hydrochloride]
viability at 2 h, 10 µM (in vitro): 100% | fold less potent in cell-based assay compared to E. coli GUS enzyme assay [4]: over 4.9 fold | fold less potent in cell-based assay compared to E. coli GUS enzyme assay ([4]; listed as mefloquine): 5 fold

O=C(CCNNC(=O)c1ccncc1)NCc1ccccc1 [Nialamide, nialamide]
activity against purified mammalian GUS [2]: no significant activity | fold more potent in cell-based assay compared to E. coli GUS enzyme assay ([4]; more potent in cells): 4 fold

NNCCc1ccccc1 [Phenelzine, phenelzine]
IC50 [5]: 70 to 900 nM | inhibition in Prestwick collection screen ([3]; single point, 10 μM compound, high throughput GUS enzyme assay, 10 µM): > 50%
